Patent publication US10202361B2, “Pyridazinones as herbicides” (E I DU PONT DE NEMOURS AND COMPANY, priority 2014, dated 2019)

Legend:
Assay in all cases: Test D pre-/postemergence controlled growth environment herbicide test
Assay type in all cases: in vivo
Conditions in all cases: scale 0 to 100
[1] = tested on: galium (catchweed bedstraw, Galium aparine)
Source text: (§1) Seeds of plant species selected from bluegrass (annual bluegrass, Poa annua), blackgrass (Alopecurus myosuroides), canarygrass (Phalaris minor), chickweed (common chickweed, Stellaria media), galium (catchweed bedstraw, Galium aparine), downy bromegrass (Bromus tectorum), field poppy (Papaver rhoeas), field violet (Viola arvensis), foxtail, green (green foxtail, Setaria viridis), deadnettle (henbit deadnettle, Lamium amplexicaule), ryegrass, Italian (Italian ryegrass, Lolium multiflorum), kochia (Kochia scoparia), lambsquarters (Chenopodium album), oilseed rape (Brassica napus), pigweed (Amaranthus retroflexus), chamomile (scentless chamomile, Matricaria inodora), Russian thistle (Salsola kali), speedwell (bird's-eye speedwell, Veronica persica), barley, spring (spring barley, Hordeum vulgare), wheat, spring (spring wheat, Triticum aestivum), buckwheat, wild (wild buckwheat, Polygonum convolvulus), mustard, wild (wild mustard, Sinapis arvensis), oat, wild (wild oat, Avena fatua), radish, wild (wild radish, Raphanus raphanistrum), windgrass (Apera spica-venti), barley, winter (winter barley, Hordeum vulgare), and wheat, winter (winter wheat, Triticum aestivum) were planted into a silt loam soil and treated preemergence with test chemicals formulated in a non-phytotoxic solvent mixture which included a surfactant.
(§2) At the same time, these species were planted in pots containing Redi-Earth® planting medium (Scotts Company, 14111 Scottslawn Road, Marysville, Ohio 43041) comprising spaghnum peat moss, vermiculite, wetting agent and starter nutrients and treated with postemergence applications of the test chemicals formulated in the same manner. Plants ranged in height from 2 to 18 cm (1- to 4-leaf stage). Treated plants and controls were maintained in a controlled growth environment for 14 to 21 d after which time all species were compared to controls and visually evaluated. Plant response ratings, summarized in Table D, are based on a scale of 0 to 100 where 0 is no effect and 100 is complete control. A dash (-) response means no test result.

[2] = tested on: radish, wild (wild radish, Raphanus raphanistrum)
Source text: as §1, §2

[3] = tested on: chamomile (scentless chamomile, Matricaria inodora)
Source text: as §1, §2

[4] = tested on: pigweed (Amaranthus retroflexus)
Source text: as §1, §2

[5] = tested on: blackgrass (Alopecurus myosuroides)
Source text: as §1, §2

[6] = tested on: field poppy (Papaver rhoeas)
Source text: as §1, §2

[7] = tested on: chickweed (common chickweed, Stellaria media)
Source text: as §1, §2

[8] = tested on: windgrass (Apera spica-venti)
Source text: as §1, §2

[9] = tested on: wheat, winter (winter wheat, Triticum aestivum)
Source text: as §1, §2

[10] = tested on: buckwheat, wild (wild buckwheat, Polygonum convolvulus)
Source text: as §1, §2

## Cc1cc(=O)n(-c2ccc(C(F)(F)F)cc2)nc1Cc1ccnc(C(F)(F)F)c1 [Compound 2, 5-methyl-2-[4-(trifluoromethyl)phenyl]-6-[[2-(trifluoromethyl)-4-pyridinyl]methyl]-3(2H)-pyridazinone]
[1]; Postemergence, 31 g ai/ha
  Plant response rating: 40
[1]; Postemergence, 62 g ai/ha
  Plant response rating: 40
[1]; Postemergence, 125 g ai/ha
  Plant response rating: 50
[1]; Postemergence, 250 g ai/ha
  Plant response rating: 75
[1]; Postemergence, 500 g ai/ha
  Plant response rating: 85
[1]; Preemergence, 31 g ai/ha
  Plant response rating: 0
[1]; Preemergence, 125 g ai/ha
  Plant response rating: 75
[1]; Preemergence, 250 g ai/ha
  Plant response rating: 100
[1]; Preemergence, 500 g ai/ha
  Plant response rating: 100
[2]; Postemergence, 31 g ai/ha
  Plant response rating: 20
[2]; Postemergence, 62 g ai/ha
  Plant response rating: 20
[2]; Postemergence, 125 g ai/ha
  Plant response rating: 90
[2]; Postemergence, 250 g ai/ha
  Plant response rating: 100
[2]; Postemergence, 500 g ai/ha
  Plant response rating: 100
[2]; Preemergence, 31 g ai/ha
  Plant response rating: 100
[2]; Preemergence, 62 g ai/ha
  Plant response rating: 100
[2]; Preemergence, 125 g ai/ha
  Plant response rating: 100
[2]; Preemergence, 250 g ai/ha
  Plant response rating: 100
[2]; Preemergence, 500 g ai/ha
  Plant response rating: 100
[3]; Postemergence, 31 g ai/ha
  Plant response rating: 30
[3]; Postemergence, 62 g ai/ha
  Plant response rating: 30
[3]; Postemergence, 125 g ai/ha
  Plant response rating: 30
[3]; Postemergence, 250 g ai/ha
  Plant response rating: 40
[3]; Postemergence, 500 g ai/ha
  Plant response rating: 60
[3]; Preemergence, 31 g ai/ha
  Plant response rating: 0
[3]; Preemergence, 62 g ai/ha
  Plant response rating: 0
[3]; Preemergence, 125 g ai/ha
  Plant response rating: 25
[3]; Preemergence, 250 g ai/ha
  Plant response rating: 50
[3]; Preemergence, 500 g ai/ha
  Plant response rating: 90
[4]; Postemergence, 31 g ai/ha
  Plant response rating: 20
[4]; Postemergence, 62 g ai/ha
  Plant response rating: 20
[4]; Postemergence, 125 g ai/ha
  Plant response rating: 20
[4]; Postemergence, 250 g ai/ha
  Plant response rating: 30
[4]; Postemergence, 500 g ai/ha
  Plant response rating: 30
[4]; Preemergence, 31 g ai/ha
  Plant response rating: 30
[4]; Preemergence, 62 g ai/ha
  Plant response rating: 60
[4]; Preemergence, 125 g ai/ha
  Plant response rating: 70
[4]; Preemergence, 250 g ai/ha
  Plant response rating: 85
[4]; Preemergence, 500 g ai/ha
  Plant response rating: 100
[5]; Postemergence, 31 g ai/ha
  Plant response rating: 5
[5]; Postemergence, 62 g ai/ha
  Plant response rating: 15
[5]; Postemergence, 125 g ai/ha
  Plant response rating: 20
[5]; Postemergence, 250 g ai/ha
  Plant response rating: 30
[5]; Postemergence, 500 g ai/ha
  Plant response rating: 50
[5]; Preemergence, 31 g ai/ha
  Plant response rating: 5
[5]; Preemergence, 62 g ai/ha
  Plant response rating: 20
[5]; Preemergence, 125 g ai/ha
  Plant response rating: 60
[5]; Preemergence, 250 g ai/ha
  Plant response rating: 60
[5]; Preemergence, 500 g ai/ha
  Plant response rating: 80
[6]; Postemergence, 31 g ai/ha
  Plant response rating: 25
[6]; Postemergence, 62 g ai/ha
  Plant response rating: 75
[6]; Postemergence, 125 g ai/ha
  Plant response rating: 100
[6]; Postemergence, 250 g ai/ha
  Plant response rating: 80
[6]; Postemergence, 500 g ai/ha
  Plant response rating: 100
[6]; Preemergence, 31 g ai/ha
  Plant response rating: 100
[6]; Preemergence, 62 g ai/ha
  Plant response rating: 100
[6]; Preemergence, 125 g ai/ha
  Plant response rating: 100
[6]; Preemergence, 250 g ai/ha
  Plant response rating: 100
[6]; Preemergence, 500 g ai/ha
  Plant response rating: 100
[7]; Postemergence, 31 g ai/ha
  Plant response rating: 30
[7]; Postemergence, 62 g ai/ha
  Plant response rating: 40
[7]; Postemergence, 125 g ai/ha
  Plant response rating: 70
[7]; Postemergence, 250 g ai/ha
  Plant response rating: 75
[7]; Postemergence, 500 g ai/ha
  Plant response rating: 100
[7]; Preemergence, 31 g ai/ha
  Plant response rating: 100
[7]; Preemergence, 62 g ai/ha
  Plant response rating: 100
[7]; Preemergence, 125 g ai/ha
  Plant response rating: 100
[7]; Preemergence, 250 g ai/ha
  Plant response rating: 100
[7]; Preemergence, 500 g ai/ha
  Plant response rating: 100
[8]; Postemergence, 31 g ai/ha
  Plant response rating: 10
[8]; Postemergence, 62 g ai/ha
  Plant response rating: 15
[8]; Postemergence, 125 g ai/ha
  Plant response rating: 20
[8]; Postemergence, 250 g ai/ha
  Plant response rating: 25
[8]; Postemergence, 500 g ai/ha
  Plant response rating: 35
[8]; Preemergence, 31 g ai/ha
  Plant response rating: 20
[8]; Preemergence, 62 g ai/ha
  Plant response rating: 50
[8]; Preemergence, 125 g ai/ha
  Plant response rating: 60
[8]; Preemergence, 250 g ai/ha
  Plant response rating: 95
[8]; Preemergence, 500 g ai/ha
  Plant response rating: 100
[9]; Postemergence, 31 g ai/ha
  Plant response rating: 10
[9]; Postemergence, 62 g ai/ha
  Plant response rating: 10
[9]; Postemergence, 125 g ai/ha
  Plant response rating: 15
[9]; Postemergence, 250 g ai/ha
  Plant response rating: 15
[9]; Postemergence, 500 g ai/ha
  Plant response rating: 20
[9]; Preemergence, 31 g ai/ha
  Plant response rating: 0
[9]; Preemergence, 62 g ai/ha
  Plant response rating: 0
[9]; Preemergence, 125 g ai/ha
  Plant response rating: 30
[9]; Preemergence, 250 g ai/ha
  Plant response rating: 40
[9]; Preemergence, 500 g ai/ha
  Plant response rating: 45
[10]; Postemergence, 31 g ai/ha
  Plant response rating: 20
[10]; Postemergence, 62 g ai/ha
  Plant response rating: 30
[10]; Postemergence, 125 g ai/ha
  Plant response rating: 50
[10]; Postemergence, 250 g ai/ha
  Plant response rating: 70
[10]; Postemergence, 500 g ai/ha
  Plant response rating: 80
[10]; Preemergence, 31 g ai/ha
  Plant response rating: 0
[10]; Preemergence, 62 g ai/ha
  Plant response rating: 20
[10]; Preemergence, 125 g ai/ha
  Plant response rating: 25
[10]; Preemergence, 250 g ai/ha
  Plant response rating: 100
[10]; Preemergence, 500 g ai/ha
  Plant response rating: 100
